Results taken from the NIST ThermoML archive (doi:10.1016/j.fluid.2005.07.017).

Experiment: xn = mol fraction of the nth substance listed
Details: Liquid, Vibrating tube method

c1ccsc1 [thiophene] + O=C=O
Details	mass density [kg/m3]
332.85 K, 13009 kPa, x2 = 0.199	1012.87
332.85 K, 13971 kPa, x2 = 0	1030.09
332.85 K, 14005 kPa, x2 = 0.199	1014.1
332.85 K, 15006 kPa, x2 = 0	1031.04
332.85 K, 15042 kPa, x2 = 0.199	1015.31
332.85 K, 15990 kPa, x2 = 0	1032.01
332.85 K, 16037 kPa, x2 = 0.199	1016.53
332.85 K, 17034 kPa, x2 = 0.199	1017.71
332.85 K, 17050 kPa, x2 = 0	1033.03
332.85 K, 17976 kPa, x2 = 0	1033.88
332.85 K, 18013 kPa, x2 = 0.199	1018.85
332.85 K, 19004 kPa, x2 = 0.199	1019.98
332.85 K, 19018 kPa, x2 = 0	1034.92
332.85 K, 20016 kPa, x2 = 0.199	1021.13
332.93 K, 10438 kPa, x2 = 0.9217	603.48
332.93 K, 11001 kPa, x2 = 0.9217	635.42
332.93 K, 12001 kPa, x2 = 0.9217	673.08
332.93 K, 13005 kPa, x2 = 0.9217	700.08
332.93 K, 13949 kPa, x2 = 0.9217	720.24
332.93 K, 15012 kPa, x2 = 0.9217	738.73
332.93 K, 16019 kPa, x2 = 0.9217	754.17
332.93 K, 17014 kPa, x2 = 0.9217	767.1
332.93 K, 18009 kPa, x2 = 0.9217	778.74
332.93 K, 18964 kPa, x2 = 0.9217	789.26
332.93 K, 20027 kPa, x2 = 0.9217	798.89
332.93 K, 21018 kPa, x2 = 0.9217	807.65
332.93 K, 22031 kPa, x2 = 0.9217	815.99
332.93 K, 23019 kPa, x2 = 0.9217	823.51
332.93 K, 23954 kPa, x2 = 0.9217	830.07
332.93 K, 25005 kPa, x2 = 0.9217	836.64
332.96 K, 6987 kPa, x2 = 0.3818	977.03
332.96 K, 8041 kPa, x2 = 0.3818	979.02
332.96 K, 9012 kPa, x2 = 0.3818	980.85
332.96 K, 10018 kPa, x2 = 0.3818	982.65
332.96 K, 11007 kPa, x2 = 0.3818	984.44
332.96 K, 12018 kPa, x2 = 0.3818	986.2
332.96 K, 13030 kPa, x2 = 0.3818	987.96
332.96 K, 13998 kPa, x2 = 0.3818	989.61
332.96 K, 14969 kPa, x2 = 0.3818	991.25
332.96 K, 16045 kPa, x2 = 0.3818	993.04
332.96 K, 17024 kPa, x2 = 0.3818	994.61
332.96 K, 18020 kPa, x2 = 0.3818	996.22
332.96 K, 19050 kPa, x2 = 0.3818	997.85
333.04 K, 9091 kPa, x2 = 0.6996	929.67
333.04 K, 10017 kPa, x2 = 0.6996	932.84
333.04 K, 11036 kPa, x2 = 0.6996	936.19
333.04 K, 11989 kPa, x2 = 0.6996	939.22
333.04 K, 13024 kPa, x2 = 0.6996	942.4
333.04 K, 14004 kPa, x2 = 0.6996	945.28
333.04 K, 14904 kPa, x2 = 0.6996	947.84
333.04 K, 16043 kPa, x2 = 0.6996	951.03
333.04 K, 17013 kPa, x2 = 0.6996	953.62
333.04 K, 18048 kPa, x2 = 0.6996	956.36
333.04 K, 19011 kPa, x2 = 0.6996	958.88
333.15 K, 101 kPa, x2 = 0	1014.58
342.66 K, 5097 kPa, x2 = 0.199	988.63
342.66 K, 6031 kPa, x2 = 0.199	989.99
342.66 K, 7084 kPa, x2 = 0.199	991.48
342.66 K, 8010 kPa, x2 = 0.199	992.78
342.66 K, 9020 kPa, x2 = 0.199	994.19
342.66 K, 10077 kPa, x2 = 0.199	995.61
342.66 K, 11049 kPa, x2 = 0.199	996.93
342.66 K, 11932 kPa, x2 = 0.199	998.15
342.66 K, 13009 kPa, x2 = 0.199	999.54
342.66 K, 13997 kPa, x2 = 0.199	1000.84
342.66 K, 14996 kPa, x2 = 0.199	1002.14
342.66 K, 16043 kPa, x2 = 0.199	1003.48
342.66 K, 17018 kPa, x2 = 0.199	1004.66
342.66 K, 18018 kPa, x2 = 0.199	1005.93
342.66 K, 19016 kPa, x2 = 0.199	1007.17
342.66 K, 20032 kPa, x2 = 0.199	1008.42
342.69 K, 9071 kPa, x2 = 0.5661	923.94
342.69 K, 10000 kPa, x2 = 0.5661	926.85
342.69 K, 11013 kPa, x2 = 0.5661	929.94
342.69 K, 11994 kPa, x2 = 0.5661	932.85
342.69 K, 13024 kPa, x2 = 0.5661	935.81
342.69 K, 13996 kPa, x2 = 0.5661	938.48
342.69 K, 15008 kPa, x2 = 0.5661	941.2
342.69 K, 16016 kPa, x2 = 0.5661	943.82
342.69 K, 17021 kPa, x2 = 0.5661	946.37
342.69 K, 18030 kPa, x2 = 0.5661	948.87
342.69 K, 19004 kPa, x2 = 0.5661	951.23
342.77 K, 1039 kPa, x2 = 0	1004.75
342.77 K, 2072 kPa, x2 = 0	1005.93
342.77 K, 3033 kPa, x2 = 0	1007.02
342.77 K, 4023 kPa, x2 = 0	1008.17
342.77 K, 5027 kPa, x2 = 0	1009.26
342.77 K, 6033 kPa, x2 = 0	1010.36
342.77 K, 7008 kPa, x2 = 0	1011.44
342.77 K, 7998 kPa, x2 = 0	1012.5
342.77 K, 9005 kPa, x2 = 0	1013.59
342.77 K, 10000 kPa, x2 = 0	1014.65
342.77 K, 10963 kPa, x2 = 0	1015.65
342.77 K, 12009 kPa, x2 = 0	1016.72
342.77 K, 13023 kPa, x2 = 0	1017.82
342.77 K, 13928 kPa, x2 = 0	1018.74
342.77 K, 15009 kPa, x2 = 0	1019.83
342.77 K, 15998 kPa, x2 = 0	1020.79
342.77 K, 17025 kPa, x2 = 0	1021.8
342.77 K, 17995 kPa, x2 = 0	1022.8
342.77 K, 19013 kPa, x2 = 0	1023.79
342.77 K, 20001 kPa, x2 = 0	1024.73
342.91 K, 7074 kPa, x2 = 0.3818	959.84
342.91 K, 7993 kPa, x2 = 0.3818	961.78
342.91 K, 8982 kPa, x2 = 0.3818	963.81
342.91 K, 10027 kPa, x2 = 0.3818	965.93
